Key:
[1] = biological target: Serine/threonine-protein kinase 33 (Homo sapiens) (UniProt Q9BYT3); assay: % Activity remaining of STK33 in the Dundee kinase panel at 1.0 µM; conditions: Compound concentration 1.0 uM
[2] = biological target: Serine/threonine-protein kinase TAO1 (Homo sapiens) (UniProt Q7L7X3); assay: % Activity remaining of TAO1 in the Dundee kinase panel at 1.0 µM; conditions: Compound concentration 1.0 uM
[3] = biological target: Tyrosine-protein kinase JAK2 (Homo sapiens) (UniProt O60674); assay: % Activity remaining of JAK2 in the Dundee kinase panel at 1.0 µM; conditions: Compound concentration 1.0 uM
[4] = biological target: Serine/threonine-protein kinase TBK1 (Homo sapiens) (UniProt Q9UHD2); assay: % Activity remaining of TBK1 in the Dundee kinase panel at 1.0 µM; conditions: Compound concentration 1.0 uM
[5] = biological target: Death-associated protein kinase 1 (Homo sapiens) (UniProt P53355); assay: % Activity remaining of DAPK1 in the Dundee kinase panel at 1.0 µM; conditions: Compound concentration 1.0 uM
[6] = biological target: Dual specificity testis-specific protein kinase 1 (Homo sapiens) (UniProt Q15569); assay: % Activity remaining of TESK1 in the Dundee kinase panel at 1.0 µM; conditions: Compound concentration 1.0 uM
[7] = biological target: Serine/threonine-protein kinase BRSK2 (Homo sapiens) (UniProt Q8IWQ3); assay: % Activity remaining of BRSK2 in the Dundee kinase panel at 1.0 µM; conditions: Compound concentration 1.0 uM
Sequence of Serine/threonine-protein kinase BRSK2 (Homo sapiens) (Q8IWQ3 whole entry): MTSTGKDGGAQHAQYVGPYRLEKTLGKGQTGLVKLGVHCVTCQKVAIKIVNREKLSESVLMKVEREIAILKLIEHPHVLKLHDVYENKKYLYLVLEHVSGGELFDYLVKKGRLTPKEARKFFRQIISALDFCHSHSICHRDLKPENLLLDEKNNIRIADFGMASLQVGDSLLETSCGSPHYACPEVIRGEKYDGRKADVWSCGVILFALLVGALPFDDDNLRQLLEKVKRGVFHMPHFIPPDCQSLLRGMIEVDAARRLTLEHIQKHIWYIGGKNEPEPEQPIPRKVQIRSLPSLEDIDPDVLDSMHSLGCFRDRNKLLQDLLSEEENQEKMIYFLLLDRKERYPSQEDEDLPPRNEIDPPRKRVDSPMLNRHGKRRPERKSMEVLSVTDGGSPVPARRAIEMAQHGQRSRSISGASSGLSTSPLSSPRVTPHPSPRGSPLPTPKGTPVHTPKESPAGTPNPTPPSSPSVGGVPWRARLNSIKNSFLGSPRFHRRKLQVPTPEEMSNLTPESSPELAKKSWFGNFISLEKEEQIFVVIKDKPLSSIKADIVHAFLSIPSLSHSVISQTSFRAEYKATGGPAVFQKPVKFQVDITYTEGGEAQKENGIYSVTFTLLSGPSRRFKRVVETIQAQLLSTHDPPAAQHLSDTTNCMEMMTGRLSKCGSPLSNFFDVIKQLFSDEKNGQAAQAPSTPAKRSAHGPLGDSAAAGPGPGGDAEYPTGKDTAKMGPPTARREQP

[8] = biological target: Mitogen-activated protein kinase kinase kinase 7 (Homo sapiens) (UniProt O43318); assay: % Activity remaining of TAK1 in the Dundee kinase panel at 1.0 µM; conditions: Compound concentration 1.0 uM
[9] = biological target: Mitogen-activated protein kinase 3 (Homo sapiens) (UniProt P27361); assay: % Activity remaining of ERK1 in the Dundee kinase panel at 1.0 µM; conditions: Compound concentration 1.0 uM
[10] = biological target: Serine/threonine-protein kinase SIK2 (Homo sapiens) (UniProt Q9H0K1); assay: % Activity remaining of SIK2 in the Dundee kinase panel at 1.0 µM; conditions: Compound concentration 1.0 uM
[11] = biological target: Tyrosine-protein kinase ZAP-70 (Homo sapiens) (UniProt P43403); assay: % Activity remaining of ZAP70 in the Dundee kinase panel at 1.0 µM; conditions: Compound concentration 1.0 uM
[12] = biological target: TGF-beta receptor type-1 (Homo sapiens) (UniProt P36897); assay: % Activity remaining of TGFBR1 in the Dundee kinase panel at 1.0 µM; conditions: Compound concentration 1.0 uM
Sequence of TGF-beta receptor type-1 (Homo sapiens) (P36897 whole entry): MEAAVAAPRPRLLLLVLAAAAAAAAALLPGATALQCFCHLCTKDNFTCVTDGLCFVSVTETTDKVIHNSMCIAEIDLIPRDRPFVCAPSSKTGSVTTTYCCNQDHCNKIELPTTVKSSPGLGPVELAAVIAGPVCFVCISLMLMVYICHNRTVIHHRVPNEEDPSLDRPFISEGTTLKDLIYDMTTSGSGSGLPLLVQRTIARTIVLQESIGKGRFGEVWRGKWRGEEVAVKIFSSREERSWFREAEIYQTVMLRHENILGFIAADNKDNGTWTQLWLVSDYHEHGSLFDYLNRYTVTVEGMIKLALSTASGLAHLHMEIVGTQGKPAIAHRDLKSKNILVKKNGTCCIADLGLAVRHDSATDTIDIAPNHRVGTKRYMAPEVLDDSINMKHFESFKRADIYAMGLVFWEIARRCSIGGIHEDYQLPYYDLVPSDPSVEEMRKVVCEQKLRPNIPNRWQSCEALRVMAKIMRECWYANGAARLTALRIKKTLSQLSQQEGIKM

[13] = biological target: Testis-specific serine/threonine-protein kinase 1 (Homo sapiens) (UniProt Q9BXA7); assay: % Activity remaining of TSSK1 in the Dundee kinase panel at 1.0 µM; conditions: Compound concentration 1.0 uM
Sequence of Testis-specific serine/threonine-protein kinase 1 (Homo sapiens) (Q9BXA7 whole entry): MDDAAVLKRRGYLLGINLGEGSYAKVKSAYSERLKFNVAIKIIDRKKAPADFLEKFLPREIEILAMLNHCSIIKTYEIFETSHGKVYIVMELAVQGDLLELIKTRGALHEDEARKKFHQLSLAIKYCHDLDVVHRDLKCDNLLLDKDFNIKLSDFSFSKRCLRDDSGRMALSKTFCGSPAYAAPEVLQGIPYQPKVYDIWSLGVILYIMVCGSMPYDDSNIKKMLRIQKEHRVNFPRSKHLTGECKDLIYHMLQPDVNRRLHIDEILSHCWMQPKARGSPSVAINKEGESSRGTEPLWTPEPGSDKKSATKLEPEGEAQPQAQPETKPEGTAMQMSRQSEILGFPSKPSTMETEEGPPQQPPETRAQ

[14] = biological target: Tyrosine-protein kinase BTK (Homo sapiens) (UniProt Q06187); assay: % Activity remaining of BTK in the Dundee kinase panel at 1.0 µM; conditions: Compound concentration 1.0 uM
[15] = biological target: Dual specificity tyrosine-phosphorylation-regulated kinase 1A (Homo sapiens) (UniProt Q13627); assay: % Activity remaining of DYRK1A in the Dundee kinase panel at 1.0 µM; conditions: Compound concentration 1.0 uM
[16] = biological target: Cyclin-dependent kinase 2/cyclin A (Homo sapiens) (UniProt P24941+P20248+P78396); assay: % Activity remaining of CDK2-Cyclin A in the Dundee kinase panel at 1.0 µM; type: protein-complex assay; conditions: Compound concentration 1.0 uM
[17] = biological target: Inhibitor of nuclear factor kappa-B kinase subunit beta (Homo sapiens) (UniProt O14920); assay: % Activity remaining of IKK beta in the Dundee kinase panel at 1.0 µM; conditions: Compound concentration 1.0 uM
[18] = biological target: Dual specificity protein kinase CLK2 (Homo sapiens) (UniProt P49760); assay: % Activity remaining of CLK2 in the Dundee kinase panel at 1.0 µM; conditions: Compound concentration 1.0 uM
[19] = biological target: Serine/threonine-protein kinase N2 (Homo sapiens) (UniProt Q16513); assay: % Activity remaining of PRK2 in the Dundee kinase panel at 1.0 µM; conditions: Compound concentration 1.0 uM
[20] = biological target: Misshapen-like kinase 1 (Homo sapiens) (UniProt Q8N4C8); assay: % Activity remaining of MINK1 in the Dundee kinase panel at 1.0 µM; conditions: Compound concentration 1.0 uM
[21] = biological target: Receptor tyrosine-protein kinase erbB-4 (Homo sapiens) (UniProt Q15303); assay: % Activity remaining of HER4 in the Dundee kinase panel at 1.0 µM; conditions: Compound concentration 1.0 uM
Sequence of Receptor tyrosine-protein kinase erbB-4 (Homo sapiens) (Q15303 whole entry): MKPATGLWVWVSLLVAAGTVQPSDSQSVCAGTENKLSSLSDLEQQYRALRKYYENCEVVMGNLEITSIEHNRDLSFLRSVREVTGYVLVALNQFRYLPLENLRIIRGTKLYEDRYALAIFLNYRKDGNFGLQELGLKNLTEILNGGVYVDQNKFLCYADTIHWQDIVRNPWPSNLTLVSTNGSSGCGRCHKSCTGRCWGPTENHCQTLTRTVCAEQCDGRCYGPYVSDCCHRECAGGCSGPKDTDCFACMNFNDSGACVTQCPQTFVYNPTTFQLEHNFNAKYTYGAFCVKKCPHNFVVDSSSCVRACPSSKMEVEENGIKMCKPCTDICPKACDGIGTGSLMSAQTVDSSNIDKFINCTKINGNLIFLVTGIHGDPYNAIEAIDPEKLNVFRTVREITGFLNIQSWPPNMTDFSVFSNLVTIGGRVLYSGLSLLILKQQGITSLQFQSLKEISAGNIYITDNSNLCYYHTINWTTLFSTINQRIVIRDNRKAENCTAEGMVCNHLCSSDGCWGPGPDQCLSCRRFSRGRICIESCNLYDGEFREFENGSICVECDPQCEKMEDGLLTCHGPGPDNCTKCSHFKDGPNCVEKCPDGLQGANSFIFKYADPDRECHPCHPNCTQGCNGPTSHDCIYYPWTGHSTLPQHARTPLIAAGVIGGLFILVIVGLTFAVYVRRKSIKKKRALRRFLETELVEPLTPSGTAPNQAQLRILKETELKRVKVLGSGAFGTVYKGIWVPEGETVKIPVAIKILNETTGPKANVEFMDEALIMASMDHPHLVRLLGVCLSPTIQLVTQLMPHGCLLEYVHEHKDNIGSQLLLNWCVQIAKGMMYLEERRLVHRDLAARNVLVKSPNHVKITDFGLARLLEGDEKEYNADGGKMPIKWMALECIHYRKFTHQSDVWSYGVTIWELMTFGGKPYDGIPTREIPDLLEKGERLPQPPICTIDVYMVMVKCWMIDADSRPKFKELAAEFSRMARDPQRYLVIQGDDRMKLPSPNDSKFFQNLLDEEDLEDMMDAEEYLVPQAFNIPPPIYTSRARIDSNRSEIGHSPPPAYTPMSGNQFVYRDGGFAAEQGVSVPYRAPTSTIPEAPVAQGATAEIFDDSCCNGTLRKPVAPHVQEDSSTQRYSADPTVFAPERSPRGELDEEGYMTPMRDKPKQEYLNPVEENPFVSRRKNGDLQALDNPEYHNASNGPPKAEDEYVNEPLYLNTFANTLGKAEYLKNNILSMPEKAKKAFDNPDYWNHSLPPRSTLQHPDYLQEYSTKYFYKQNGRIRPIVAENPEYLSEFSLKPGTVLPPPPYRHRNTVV

[22] = biological target: Insulin receptor (Homo sapiens) (UniProt P06213); assay: % Activity remaining of IR in the Dundee kinase panel at 1.0 µM; conditions: Compound concentration 1.0 uM
[23] = biological target: Tyrosine-protein kinase CSK (Homo sapiens) (UniProt P41240); assay: % Activity remaining of CSK in the Dundee kinase panel at 1.0 µM; conditions: Compound concentration 1.0 uM
[24] = biological target: SRSF protein kinase 1 (Homo sapiens) (UniProt Q96SB4); assay: % Activity remaining of SRPK1 in the Dundee kinase panel at 1.0 µM; conditions: Compound concentration 1.0 uM
[25] = biological target: Mitogen-activated protein kinase 8 (Homo sapiens) (UniProt P45983); assay: % Activity remaining of JNK1 in the Dundee kinase panel at 1.0 µM; conditions: Compound concentration 1.0 uM
[26] = biological target: Glycogen synthase kinase-3 beta (Homo sapiens) (UniProt P49841); assay: % Activity remaining of GSK3 beta in the Dundee kinase panel at 1.0 µM; conditions: Compound concentration 1.0 uM
[27] = biological target: Serine/threonine-protein kinase Sgk3 (Homo sapiens) (UniProt Q96BR1); assay: SGK3 degradation assay at 100 nM (48 h incubation, no effect on RPS6KB1, SGK1 and SGK2); type: functional; set-up: compound concentration 100 nM
[28] = biological target: Mitogen-activated protein kinase 7 (Homo sapiens) (UniProt Q13164); assay: % Activity remaining of ERK5 in the Dundee kinase panel at 1.0 µM; conditions: Compound concentration 1.0 uM
[29] = biological target: Mitogen-activated protein kinase kinase kinase 9 (Homo sapiens) (UniProt P80192); assay: % Activity remaining of MLK1 in the Dundee kinase panel at 1.0 µM; conditions: Compound concentration 1.0 uM
Sequence of Mitogen-activated protein kinase kinase kinase 9 (Homo sapiens) (P80192 whole entry, looked up): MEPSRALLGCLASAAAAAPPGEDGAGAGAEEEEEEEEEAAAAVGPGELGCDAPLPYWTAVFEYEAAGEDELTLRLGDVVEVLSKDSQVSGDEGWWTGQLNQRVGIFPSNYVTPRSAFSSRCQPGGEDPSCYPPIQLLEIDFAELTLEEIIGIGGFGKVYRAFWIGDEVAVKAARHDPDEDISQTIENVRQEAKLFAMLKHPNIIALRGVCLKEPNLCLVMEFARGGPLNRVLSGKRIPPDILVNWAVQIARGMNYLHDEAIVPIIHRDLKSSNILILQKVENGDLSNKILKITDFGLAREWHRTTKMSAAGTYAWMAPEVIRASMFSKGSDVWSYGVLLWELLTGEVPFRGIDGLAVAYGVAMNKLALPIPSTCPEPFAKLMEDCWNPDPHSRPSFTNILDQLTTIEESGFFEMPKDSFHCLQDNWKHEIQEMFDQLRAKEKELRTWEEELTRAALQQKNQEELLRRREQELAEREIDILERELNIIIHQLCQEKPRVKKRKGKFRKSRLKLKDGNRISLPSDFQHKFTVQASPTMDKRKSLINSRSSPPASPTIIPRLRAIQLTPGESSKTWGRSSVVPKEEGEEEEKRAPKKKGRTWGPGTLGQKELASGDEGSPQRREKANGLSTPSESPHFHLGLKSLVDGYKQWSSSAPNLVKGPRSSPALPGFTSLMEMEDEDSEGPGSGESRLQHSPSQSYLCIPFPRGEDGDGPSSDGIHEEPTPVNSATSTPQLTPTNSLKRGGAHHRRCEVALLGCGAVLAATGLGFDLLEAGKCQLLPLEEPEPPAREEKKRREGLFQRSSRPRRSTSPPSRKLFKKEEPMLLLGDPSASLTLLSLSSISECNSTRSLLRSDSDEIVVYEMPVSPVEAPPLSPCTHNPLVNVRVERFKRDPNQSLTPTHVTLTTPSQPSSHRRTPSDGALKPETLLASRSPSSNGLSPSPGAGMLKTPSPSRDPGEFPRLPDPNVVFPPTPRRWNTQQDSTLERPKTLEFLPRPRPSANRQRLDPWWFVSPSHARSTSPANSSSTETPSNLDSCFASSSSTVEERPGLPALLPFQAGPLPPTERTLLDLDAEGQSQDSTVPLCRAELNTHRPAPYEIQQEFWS

[30] = biological target: Dual specificity tyrosine-phosphorylation-regulated kinase 2 (Homo sapiens) (UniProt Q92630); assay: % Activity remaining of DYRK2 in the Dundee kinase panel at 1.0 µM; conditions: Compound concentration 1.0 uM
[31] = biological target: MAP kinase-interacting serine/threonine-protein kinase 1 (Homo sapiens) (UniProt Q9BUB5); assay: % Activity remaining of MNK1 in the Dundee kinase panel at 1.0 µM; conditions: Compound concentration 1.0 uM
[32] = biological target: Mitogen-activated protein kinase 13 (Homo sapiens) (UniProt O15264); assay: % Activity remaining of p38 delta MAPK in the Dundee kinase panel at 1.0 µM; conditions: Compound concentration 1.0 uM
Sequence of Mitogen-activated protein kinase 13 (Homo sapiens) (O15264 whole entry): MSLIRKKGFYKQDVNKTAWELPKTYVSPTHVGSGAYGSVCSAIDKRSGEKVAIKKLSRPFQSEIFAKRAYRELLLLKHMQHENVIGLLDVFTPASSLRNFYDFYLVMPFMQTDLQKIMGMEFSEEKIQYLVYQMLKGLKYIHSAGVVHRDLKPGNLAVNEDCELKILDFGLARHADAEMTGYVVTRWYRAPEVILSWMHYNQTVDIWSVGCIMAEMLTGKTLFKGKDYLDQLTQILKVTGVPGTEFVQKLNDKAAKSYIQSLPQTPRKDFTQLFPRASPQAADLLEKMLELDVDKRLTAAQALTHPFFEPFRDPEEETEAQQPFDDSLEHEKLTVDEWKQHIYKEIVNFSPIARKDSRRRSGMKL

[33] = biological target: Interleukin-1 receptor-associated kinase 4 (Homo sapiens) (UniProt Q9NWZ3); assay: % Activity remaining of IRAK4 in the Dundee kinase panel at 1.0 µM; conditions: Compound concentration 1.0 uM
[34] = biological target: MAP/microtubule affinity-regulating kinase 3 (Homo sapiens) (UniProt P27448); assay: % Activity remaining of MARK3 in the Dundee kinase panel at 1.0 µM; conditions: Compound concentration 1.0 uM
[35] = biological target: Protein kinase C alpha type (Homo sapiens) (UniProt P17252); assay: % Activity remaining of PKC alpha in the Dundee kinase panel at 1.0 µM; conditions: Compound concentration 1.0 uM
[36] = biological target: Serine/threonine-protein kinase Chk2 (Homo sapiens) (UniProt O96017); assay: % Activity remaining of CHK2 in the Dundee kinase panel at 1.0 µM; conditions: Compound concentration 1.0 uM
[37] = biological target: Mitogen-activated protein kinase kinase kinase kinase 5 (Homo sapiens) (UniProt Q9Y4K4); assay: % Activity remaining of MAP4K5 in the Dundee kinase panel at 1.0 µM; conditions: Compound concentration 1.0 uM
[38] = biological target: Dual specificity mitogen-activated protein kinase kinase 6 (Homo sapiens) (UniProt P52564); assay: % Activity remaining of MKK6 in the Dundee kinase panel at 1.0 µM; conditions: Compound concentration 1.0 uM
Sequence of Dual specificity mitogen-activated protein kinase kinase 6 (Homo sapiens) (P52564 whole entry): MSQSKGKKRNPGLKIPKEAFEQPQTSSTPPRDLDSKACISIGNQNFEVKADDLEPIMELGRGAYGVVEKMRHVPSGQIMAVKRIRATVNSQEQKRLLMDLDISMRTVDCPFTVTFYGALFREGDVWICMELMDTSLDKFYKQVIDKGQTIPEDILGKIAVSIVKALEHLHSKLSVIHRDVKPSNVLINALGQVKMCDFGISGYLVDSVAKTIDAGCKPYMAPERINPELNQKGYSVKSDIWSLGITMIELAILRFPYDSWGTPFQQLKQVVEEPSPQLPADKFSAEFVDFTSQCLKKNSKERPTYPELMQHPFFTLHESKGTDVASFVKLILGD

[39] = biological target: Serine/threonine-protein kinase pim-2 (Homo sapiens) (UniProt Q9P1W9); assay: % Activity remaining of PIM2 in the Dundee kinase panel at 1.0 µM; conditions: Compound concentration 1.0 uM
Sequence of Serine/threonine-protein kinase pim-2 (Homo sapiens) (Q9P1W9 whole entry, looked up): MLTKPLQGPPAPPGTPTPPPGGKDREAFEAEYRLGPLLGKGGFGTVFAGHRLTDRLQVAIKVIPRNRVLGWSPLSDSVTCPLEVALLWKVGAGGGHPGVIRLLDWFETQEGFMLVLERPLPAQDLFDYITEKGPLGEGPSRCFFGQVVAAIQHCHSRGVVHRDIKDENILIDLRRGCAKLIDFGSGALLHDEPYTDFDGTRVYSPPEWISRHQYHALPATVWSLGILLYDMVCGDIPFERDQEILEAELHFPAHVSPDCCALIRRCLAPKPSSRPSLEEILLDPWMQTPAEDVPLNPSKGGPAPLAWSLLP

% Activity remaining [1]	% Activity remaining [2]	% Activity remaining [3]	% Activity remaining [4]	% Activity remaining [6]	% Activity remaining [7]	% Activity remaining [8]	% Activity remaining [9]	% Activity remaining [10]	% Activity remaining [11]	% Activity remaining [12]	% Activity remaining [13]	% Activity remaining [14]	% Activity remaining [15]	% Activity remaining [16]	% Activity remaining [17]	% Activity remaining [18]	% Activity remaining [19]	% Activity remaining [20]	Structure (SMILES)	% Activity remaining [5]	other results
110%	99%	95.4%	93.4%	122%	97.2%	108%	103%	94.6%	75%	124%	115%	96.9%	105%	101%	99.9%	104%	105%	115%	Cc1ccc(F)c(S(=O)(=O)Nc2ccc(-c3nc(OC[C@H]4CN(CCCCCCOCCOCCOCC(=O)N[C@H](C(=O)N5C[C@H](O)C[C@H]5C(=O)NCc5ccc(-c6scnc6C)cc5)C(C)(C)C)CCO4)c4cn[nH]c4n3)cc2)c1	100%	% Activity remaining [21]: 92%; % Activity remaining [22]: 103%; % Activity remaining [23]: 118%; % Activity remaining [24]: 95.8%; % Activity remaining [25]: 117%; % Activity remaining [26]: 108%; Degradation [27]: 65%; % Activity remaining [28]: 102%; % Activity remaining [29]: 81.9%; % Activity remaining [30]: 102%; % Activity remaining [31]: 108%; % Activity remaining [32]: 103%; % Activity remaining [33]: 114%; % Activity remaining [34]: 98.4%; % Activity remaining [35]: 121%; % Activity remaining [36]: 84.8%; % Activity remaining [37]: 98.6%; % Activity remaining [38]: 123%; % Activity remaining [39]: 98.2%
109%	105%	93.6%	111%	120%	101%	107%	101%	93.8%	74.7%	114%	113%	90.6%	99%	103%	101%	84.8%	101%	116%	Cc1ccc(F)c(S(=O)(=O)Nc2ccc(-c3nc(OC[C@H]4CN(CCCCCCOCCOCCOCC(=O)N[C@H](C(=O)N5C[C@@H](O)C[C@H]5C(=O)NCc5ccc(-c6scnc6C)cc5)C(C)(C)C)CCO4)c4cn[nH]c4n3)cc2)c1	108%	% Activity remaining [21]: 103%; % Activity remaining [22]: 93.9%; % Activity remaining [23]: 113%; % Activity remaining [24]: 104%; % Activity remaining [25]: 119%; % Activity remaining [26]: 106%; Degradation [27]: 0%; % Activity remaining [28]: 108%; % Activity remaining [29]: 93.9%; % Activity remaining [30]: 97.3%; % Activity remaining [31]: 103%; % Activity remaining [32]: 121%; % Activity remaining [33]: 98%; % Activity remaining [34]: 109%; % Activity remaining [35]: 118%; % Activity remaining [36]: 99.1%; % Activity remaining [37]: 101%; % Activity remaining [38]: 108%; % Activity remaining [39]: 105%

From ChEMBL document CHEMBL5463727, “Data for DCP probe SGK3-PROTAC1” (2023)
